In PubChem BioAssay AID1259408 (Genetic Toxicology Data Bank (GENE-TOX), 2018):
Calls of active or inactive are those of the source. No rule for the calls is given here.

System: GENE-TOX genotoxicity assays, various organisms and cells
Assay: GENE-TOX mutagenicity studies
[1] = Species/Cell Type: Escherichia coli polA (W3119 vs P3478), Assay Type: Rec-assay, DNA effects (bacterial DNA repair), Assay Code: RE1+, Evaluation Type: Evaluation A (Pre-1980)
[2] = Species/Cell Type: Saccharomyces cerevisiae, Assay Type: Mitotic recombination or gene conversion, Assay Code: YEH-, Evaluation Type: Evaluation A (Pre-1980)
[3] = Species/Cell Type: Syrian hamster embryo (SHE) cells, Assay Type: Cell transformation, clonal assay, Assay Code: CTC-, Evaluation Type: Evaluation A (Pre-1980)
[4] = Species/Cell Type: Human lymphocytes, Assay Type: Sister-chromatid exchange (SCE) in vitro, Assay Code: SCL+D, Dose Response: With dose response, Evaluation Type: Evaluation B (Post-1980)
[5] = Species/Cell Type: Human, Assay Type: Sister-chromatid exchange (SCE) in vitro, Assay Code: SC1+D, Dose Response: With dose response, Evaluation Type: Evaluation B (Post-1980)
[6] = Species/Cell Type: Salmonella typhimurium (one or more of the five standard strains: TA98, TA100, TA1535, TA1537, and TA1538), Assay Type: Histidine reverse gene mutation, Ames assay, Assay Code: SAL+, Evaluation Type: Evaluation A (Pre-1980)
[7] = Species/Cell Type: Nonhuman, Assay Type: Chromosome aberrations in vitro, Assay Code: CY&+, Evaluation Type: Evaluation A (Pre-1980)
[8] = Species/Cell Type: Bacillus subtilis (H17 vs M45), Assay Type: Rec-assay, spot test, DNA effects (bacterial DNA repair), Assay Code: REW-, Evaluation Type: Evaluation A (Pre-1980)
[9] = Species/Cell Type: Salmonella typhimurium (one or more of the five standard strains: TA98, TA100, TA1535, TA1537, and TA1538), Assay Type: Histidine reverse gene mutation, Ames assay, Assay Code: SAL-, Evaluation Type: Evaluation A (Pre-1980)
[10] = Species/Cell Type: Drosophila melanogaster, Assay Type: Sex-linked recessive lethal gene mutation, Assay Code: SRLT, Evaluation Type: Evaluation A (Pre-1980)
[11] = Species/Cell Type: Schizosaccharomyces pombe, Assay Type: Reverse gene mutation, Assay Code: YEZ+, Evaluation Type: Evaluation A (Pre-1980)
[12] = Species/Cell Type: Escherichia coli polA (W3110 vs P3478), Assay Type: Rec-assay, DNA effects (bacterial DNA repair), Assay Code: RE2-, Evaluation Type: Evaluation A (Pre-1980)
[13] = Species/Cell Type: Allium cepa, Assay Type: Chromosome aberrations, Assay Code: ALC+D, Dose Response: With dose response, Evaluation Type: Evaluation A (Pre-1980)

## Nc1ccccc1Cl
[1]
  mutagenic call: active; positive
Species/Cell Type: Mouse, Sex: Male, Assay Type: Sperm morphology, Assay Code: SPI-, Evaluation Type: Evaluation A (Pre-1980)
  mutagenic call: inactive; negative
[2]
  mutagenic call: inactive; negative
[3]
  mutagenic call: inactive; negative

## Nc1ccc2nc3ccccn3c2n1
[4]
  mutagenic call: active; positive
[5]
  mutagenic call: active; positive

## CC(C)(c1ccc(O)cc1)c1ccc(O)cc1 (tested in a mixture with another compound)
[6]
  mutagenic call: active; positive

## CC(C)Cl
[2]
  mutagenic call: inactive; negative
[6]
  mutagenic call: active; positive

## O=C(COc1ccc(Br)cc1CN1CCOCC1)N/N=C/c1ccccc1
Species/Cell Type: Saccharomyces cerevisiae, Assay Type: Reverse gene mutation, Assay Code: YERT, Evaluation Type: Evaluation A (Pre-1980)
  mutagenic call: no conclusion

## CN(C)P(=O)(N(C)C)N1CC1
Species/Cell Type: Drosophila melanogaster, Assay Type: Sex-linked recessive lethal gene mutation, Assay Code: SRL+, Evaluation Type: Evaluation A (Pre-1980)
  mutagenic call: active; positive
[4]
  mutagenic call: active; positive
[5]
  mutagenic call: active; positive
[7]
  mutagenic call: active; positive

## Nc1cccc2c1-c1ccccc1C2
Species/Cell Type: Fischer rat embryo (RLV/1706) cells, Assay Type: Cell transformation, viral enhanced, Assay Code: CTR-, Evaluation Type: Evaluation A (Pre-1980)
  mutagenic call: inactive; negative
Species/Cell Type: Mouse embryo (AKR/ME) cells, Assay Type: Cell transformation, Assay Code: CTK-, Evaluation Type: Evaluation A (Pre-1980)
  mutagenic call: inactive; negative

## [O]=[Sn]([OH])[OH]
[8]
  mutagenic call: inactive; negative

## Oc1cccc(O)c1
Species/Cell Type: Allium cepa, Assay Type: Chromosome aberrations, Assay Code: ALC+, Evaluation Type: Evaluation A (Pre-1980)
  mutagenic call: active; positive
Species/Cell Type: Human lymphocytes, Assay Type: Sister-chromatid exchange (SCE) in vitro, Assay Code: SCL-, Evaluation Type: Evaluation B (Post-1980)
  mutagenic call: inactive; negative
Species/Cell Type: Human, Assay Type: Sister-chromatid exchange (SCE) in vitro, Assay Code: SC1-, Evaluation Type: Evaluation B (Post-1980)
  mutagenic call: inactive; negative
Species/Cell Type: Mammalian polychromatic erythrocytes, Assay Type: Micronucleus test, chromosome aberrations, Assay Code: MNTT, Evaluation Type: Evaluation A (Pre-1980)
  mutagenic call: no conclusion
Species/Cell Type: Neurospora crassa, Assay Type: Aneuploidy, chromosome aberrations, Assay Code: NEN-, Evaluation Type: Evaluation A (Pre-1980)
  mutagenic call: inactive; negative
Species/Cell Type: Nonhuman, Assay Type: Sister-chromatid exchange (SCE) in vitro, Assay Code: SC2T, Evaluation Type: Evaluation B (Post-1980)
  mutagenic call: no conclusion
Species/Cell Type: Nonhuman, Assay Type: Sister-chromatid exchange (SCE) in vivo, Assay Code: SC3-, Evaluation Type: Evaluation B (Post-1980)
  mutagenic call: inactive; negative
[9]
  mutagenic call: inactive; negative

## O=C(O)CC[N+](=O)[O-]
Species/Cell Type: Fischer rat embryo (RLV/1706) cells, Assay Type: Cell transformation, viral enhanced, Assay Code: CTR+, Evaluation Type: Evaluation A (Pre-1980)
  mutagenic call: active; positive
Species/Cell Type: Nonhuman, Assay Type: In vivo carcinogenicity studies, Assay Code: CCG-L, Evaluation Type: Evaluation A (Pre-1980)
  call: inactive; negative

## COc1cc(C=O)ccc1O
[4]
  mutagenic call: active; positive
[5]
  mutagenic call: active; positive

## C[CH2][Hg][S]c1ccccc1C(=O)O
Species/Cell Type: Saccharomyces cerevisiae, Assay Type: Mitotic recombination or gene conversion, Assay Code: YEC+, Evaluation Type: Evaluation A (Pre-1980)
  mutagenic call: active; positive

## CCS(=O)CCSP(=S)(OC)OC (centres undefined)
[10]
  mutagenic call: no conclusion

## CCNP(=O)(N1CC1)N1CC1
Species/Cell Type: Nonhuman bone marrow, Assay Type: Chromosome aberrations, in vivo, Assay Code: CY#+, Evaluation Type: Evaluation A (Pre-1980)
  mutagenic call: active; positive
[7]
  mutagenic call: active; positive
[11]
  mutagenic call: active; positive

## Cc1ccc2cccc(O)c2n1
Species/Cell Type: Salmonella typhimurium (one or more of the five standard strains: TA98, TA100, TA1535, TA1537, and TA1538), Assay Type: Histidine reverse gene mutation, Ames assay, Assay Code: SALT, Evaluation Type: Evaluation A (Pre-1980)
  mutagenic call: no conclusion

## O=C1CN(/N=C/c2ccc([N+](=O)[O-])o2)C(=O)N1CO
Species/Cell Type: Human, Sex: Male, Assay Type: Sperm morphology, Assay Code: SPHT, Evaluation Type: Evaluation A (Pre-1980)
  mutagenic call: no conclusion

## CC(=O)Nc1cc2c(cc1O)-c1ccccc1C2
[10]
  mutagenic call: no conclusion
[12]
  mutagenic call: inactive; negative
Species/Cell Type: Escherichia coli polA (W3119 vs P3478), Assay Type: Rec-assay, DNA effects (bacterial DNA repair), Assay Code: RE1T, Evaluation Type: Evaluation A (Pre-1980)
  mutagenic call: no conclusion
Species/Cell Type: Human diploid fibroblasts, Assay Type: Unscheduled DNA synthesis (UDS) in vitro, DNA effects, Assay Code: UDH-, Evaluation Type: Evaluation A (Pre-1980)
  mutagenic call: inactive; negative
[2]
  mutagenic call: inactive; negative
[9]
  mutagenic call: inactive; negative

## O=[N+]([O-])c1ccc(SSc2ccc([N+](=O)[O-])cc2)cc1
[6]
  mutagenic call: active; positive

## CC1=C2C(=CO[C@H](C)[C@H]2C)C(=O)C(C(=O)O)=C1O
Species/Cell Type: Bacillus subtilis (H17 vs M45), Assay Type: Rec-assay, spot test, DNA effects (bacterial DNA repair), Assay Code: REW+, Evaluation Type: Evaluation A (Pre-1980)
  mutagenic call: active; positive
[2]
  mutagenic call: inactive; negative

## CCC(CC)c1cccc(OC(=O)N(C)N=O)c1
[6]
  mutagenic call: active; positive

## O=C1CCCCCO1
[12]
  mutagenic call: inactive; negative
Species/Cell Type: Escherichia coli polA (W3119 vs P3478), Assay Type: Rec-assay, DNA effects (bacterial DNA repair), Assay Code: RE1-, Evaluation Type: Evaluation A (Pre-1980)
  mutagenic call: inactive; negative
Species/Cell Type: Mouse lymphoma (L5178Y) cells, Assay Type: Forward gene mutation at the thymidine kinase (TK) locus, chromosome aberrations, Assay Code: L51-, Evaluation Type: Evaluation A (Pre-1980)
  mutagenic call: inactive; negative
Species/Cell Type: Nonhuman, Assay Type: Sister-chromatid exchange (SCE) in vitro, Assay Code: SC2-, Evaluation Type: Evaluation A (Pre-1980)
  mutagenic call: inactive; negative
[2]
  mutagenic call: inactive; negative
[9]
  mutagenic call: inactive; negative
Species/Cell Type: Salmonella typhimurium, Assay Type: Forward and reverse gene mutation, host-mediated assay, Assay Code: HMA-, Evaluation Type: Evaluation A (Pre-1980)
  mutagenic call: inactive; negative
[3]
  mutagenic call: inactive; negative

## O=C(NCCCCCCCCNC(=O)C(Cl)Cl)C(Cl)Cl
Species/Cell Type: Human, Sex: Male, Assay Type: Sperm morphology, Assay Code: SPH+, Evaluation Type: Evaluation A (Pre-1980)
  mutagenic call: active; positive

## CC(=O)N1CC1
Species/Cell Type: Vicia faba, Assay Type: Chromosome aberrations, Assay Code: VIC+, Evaluation Type: Evaluation A (Pre-1980)
  mutagenic call: active; positive

## CC(=O)O
Species/Cell Type: Human lymphocytes, Assay Type: Sister-chromatid exchange (SCE) in vitro, Assay Code: SCL-, Evaluation Type: Evaluation A (Pre-1980)
  mutagenic call: inactive; negative
Species/Cell Type: Human, Assay Type: Sister-chromatid exchange (SCE) in vitro, Assay Code: SC1-, Evaluation Type: Evaluation A (Pre-1980)
  mutagenic call: inactive; negative
[9]
  mutagenic call: inactive; negative
Species/Cell Type: Syrian hamster embryo (SA7/SHE) cells, Assay Type: Cell transformation, viral enhanced, Assay Code: CT7-, Evaluation Type: Evaluation A (Pre-1980)
  mutagenic call: inactive; negative

## Cc1ccc2oc(=O)ccc2c1
[13]
  mutagenic call: active; positive
[7]
  mutagenic call: active; positive

## Oc1cc(O)cc(O)c1
[13]
  mutagenic call: active; positive

## C=CCNC(=O)OC1(SC)C(=O)c2ccccc2C1=O
Species/Cell Type: Salmonella typhimurium, Assay Type: Forward and reverse gene mutation, host-mediated assay, Assay Code: HMAT, Evaluation Type: Evaluation A (Pre-1980)
  mutagenic call: no conclusion

## Nc1nc(N)nc(N)n1
[10]
  mutagenic call: no conclusion

## Nc1ccc(O)c(N)c1
Species/Cell Type: Allium cepa, Assay Type: Chromosome aberrations, Assay Code: ALC-, Evaluation Type: Evaluation A (Pre-1980)
  mutagenic call: inactive; negative

## CC(C)N(C(=O)SC/C(Cl)=C/Cl)C(C)C
Species/Cell Type: Nonhuman, Assay Type: Sister-chromatid exchange (SCE) in vitro, Assay Code: SC2+D*, Activation: With metabolic activation, Dose Response: With dose response, Evaluation Type: Evaluation B (Post-1980)
  mutagenic call: active; positive
Species/Cell Type: Salmonella typhimurium (one or more of the five standard strains: TA98, TA100, TA1535, TA1537, and TA1538), Assay Type: Histidine reverse gene mutation, Ames assay, Assay Code: SAL+*, Activation: With metabolic activation, Evaluation Type: Evaluation A (Pre-1980)
  mutagenic call: active; positive

## C1O[C@@H]1[C@H]1CO1
[13]
  mutagenic call: active; positive
Species/Cell Type: Arabidopsis species, Assay Type: Gene mutation, Assay Code: ARM+, Evaluation Type: Evaluation A (Pre-1980)
  mutagenic call: active; positive
[11]
  mutagenic call: active; positive
Species/Cell Type: Zea mays (corn), Assay Type: Gene mutation, Assay Code: ZEM+, Evaluation Type: Evaluation A (Pre-1980)
  mutagenic call: active; positive

## [Cl][Pb][Cl]
[8]
  mutagenic call: inactive; negative

## OC1c2ccccc2C2OC2[C@H]1O (some centres undefined)
[1]
  mutagenic call: active; positive
